In brackets after ≈: the same amount, converted by molar mass. Entries after “also recorded” stand apart in the source; their conditions may differ. Counter-ions that a name gives are not always drawn. Like-named read-outs stand apart in the source and are kept apart here.
What was measured:
Type in all cases: physicochemical
[1] = Evaluation of light stability: exposure to fluorescence at 25° C., ICH light stability test chamber, content by HPLC; parameters: content (HPLC) in light stability test: reference not given here
Experimental: A light stability test was performed as follows. The sulphonic acid salts of sibutramine, prepared in Examples 1 to 5, and sibutramine hydrochloride monohydrate were exposed to fluorescence at 25° C. using a light stability test chamber suitable for the ICH guideline, for storage periods of 1, 2 and 4 weeks.

[2] = Evaluation of hygroscopicity: water content (K.F.) after exposure to humid conditions at 25° C.; conditions: for change in water content under humid conditions (in words): relative humidities of 10%, 75% and 90%, up to one week or longer
Experimental: The sulphonic acid salts of sibutramine, prepared in Examples 1 to 5, and sibutramine hydrochloride monohydrate were exposed to humid conditions (10%, 75% and 90% RH) at 25° C. for a period of three days or one week. Then, the water content (K.F. water %) of the samples was measured.

[3] = Evaluation of solubility in distilled water and aqueous solutions having various pH values
[4] = Evaluation of stability: stringent 60° C. heat treatment, content by HPLC; parameters: content (HPLC) upon 60° C. heat treatment: reference not given here
Experimental: The sulphonic acid salts of sibutramine, prepared in Examples 1 to 5, and sibutramine hydrochloride monohydrate were exposed to a stringent 60° C. heat treatment.
HPLC was performed under the following conditions.
Wavelength of UV detection: 225 nm
Column: octadecyl silica gel, C18 (4.6×150 mm, 5 μm)
Mobile phase: an aqueous solution of ammonium phosphate monohydride (0.05 M) (adjusted to pH 6 with phosphoric acid): acetonitrile=35:65

[5] = distilled water (DW) and buffer solutions at various pH values
[6] = 10% relative humidity, 25° C., 1 week
[7] = 10% relative humidity, 25° C., 3 days
[8] = 75% relative humidity, 25° C., 1 week
[9] = 75% relative humidity, 25° C., 3 days
[10] = 90% relative humidity, 25° C., 1 week
[11] = 90% relative humidity, 25° C., 3 days

Structure (SMILES) | content (HPLC) in light stability test ([1]; Initial) | content (HPLC) in light stability test ([1]; fluorescence, 25° C., 1 wk) | content (HPLC) in light stability test ([1]; fluorescence, 25° C., 2 wks) | content (HPLC) in light stability test ([1]; fluorescence, 25° C., 4 wks) | change in water content under humid conditions (in words) [2] | solubility ([3]; DW (distilled water)) [mg/mL] | solubility compared to sibutramine hydrochloride monohydrate (in words) [3, 5] | solubility ([3]; pH 1.2) [mg/mL] | solubility ([3]; pH 4.0) [mg/mL] | solubility ([3]; pH 5.3) [mg/mL] | solubility ([3]; pH 6.8) [mg/mL] | solubility ([3]; pH 7.4) [mg/mL] | content (HPLC) upon 60° C. heat treatment ([4]; 60° C., 1 wk) | content (HPLC) upon 60° C. heat treatment ([4]; 60° C., 2 wks) | content (HPLC) upon 60° C. heat treatment ([4]; 60° C., 4 wks) | content (HPLC) upon 60° C. heat treatment ([4]; Initial) | water content (K.F. water %) [2, 6] [%] | water content (K.F. water %) [2, 7] [%] | water content (K.F. water %) [2, 8] [%] | water content (K.F. water %) [2, 9] [%] | other results
CC(C)CC(N(C)C)C1(c2ccc(Cl)cc2)CCC1 (stereo not drawn) [Besylate, sibutramine besylate] | 1.000 | 1.000 | 0.999 | 0.999 | almost no change in water content | 19.18 | slightly lower solubility than sibutramine hydrochloride monohydrate | 15.18 | 8.51 | 5.72 | 21.86 | 7.01 | 1.000 | 0.999 | 1.000 | 1.000 | – | – | – | – | water content (K.F. water %) ([2]; 10% relative humidity, 25° C., 1 week, listed as Bensylate): 0.02%; water content (K.F. water %) ([2]; 10% relative humidity, 25° C., 3 days, listed as Bensylate): 0.02%; water content (K.F. water %) ([2]; 75% relative humidity, 25° C., 1 week, listed as Bensylate): 0.05%; water content (K.F. water %) ([2]; 75% relative humidity, 25° C., 3 days, listed as Bensylate): 0.02%; water content (K.F. water %) ([2]; 90% relative humidity, 25° C., 1 week, listed as Bensylate): 0.05%; water content (K.F. water %) ([2]; 90% relative humidity, 25° C., 3 days, listed as Bensylate): 0.05%; water content (K.F. water %) ([2]; Initial, listed as Bensylate): 0.02%; solubility ([3]; aqueous buffer, distilled water (DW) and buffer solutions at various pH values, read-out: solubility against the solubility sufficient for preparing pharmaceutical formulations such as capsules): > 3 mg/mL; solubility compared to sibutramine hydrochloride monohydrate (in words) ([3]; distilled water (DW) and buffer solutions at various pH values, listed as besylate): slightly low solubility compared to sibutramine hydrochloride monohydrate
CC(C)CC(N(C)C)C1(c2ccc(Cl)cc2)CCC1.CC1(C)C2CCC1(CS(=O)(=O)O)C(=O)C2 (stereo not drawn) [Camsylate, sibutramine camsylate] | 1.000 | 0.999 | 1.000 | 0.999 | almost no change in water content | 23.67 | – | 16.18 | 16.75 | 7.45 | 29.83 | 13.97 | 1.000 | 0.999 | 0.999 | 1.000 | 0.08 | 0.09 | 0.06 | 0.06 | water content (K.F. water %) [2, 10]: 0.12%; water content (K.F. water %) [2, 11]: 0.08%; water content (K.F. water %) ([2]; Initial): 0.09%
CC(C)CC(N(C)C)C1(c2ccc(Cl)cc2)CCC1 (stereo not drawn) [Edisylate, sibutramine edisylate] | 1.000 | 1.000 | 0.999 | 1.000 | almost no change in water content | 25.98 (≈ 92.8 mM) | slightly low solubility compared to sibutramine hydrochloride monohydrate; also recorded: slightly lower solubility than sibutramine hydrochloride monohydrate | 10.57 (≈ 37.8 mM) | 9.78 (≈ 34.9 mM) | 5.68 (≈ 20.3 mM) | 19.44 (≈ 69.5 mM) | 8.04 (≈ 28.7 mM) | 0.999 | 1.000 | 0.999 | 1.000 | 0.05 | 0.06 | 0.05 | 0.04 | water content (K.F. water %) [2, 10]: 0.05%; water content (K.F. water %) [2, 11]: 0.04%; water content (K.F. water %) ([2]; Initial): 0.05%
CC(C)CC(N(C)C)C1(c2ccc(Cl)cc2)CCC1 (stereo not drawn) [HCl monohydrate, sibutramine hydrochloride monohydrate, reference compound] | 1.000 | – | – | – | – | – | – | – | – | – | – | – | – | – | – | 1.000 | – | – | – | – | light stability (in words) ([1]; content changes analyzed by HPLC): good light stability; content (HPLC) in light stability test ([1]; fluorescence, 25° C., 1 wk, hydrochloride monohydrate): 0.999; content (HPLC) in light stability test ([1]; fluorescence, 25° C., 2 wks, hydrochloride monohydrate): 1.000; content (HPLC) in light stability test ([1]; fluorescence, 25° C., 4 wks, hydrochloride monohydrate): 0.999; water content (K.F. water %) ([2]; 10% relative humidity, 25° C., 1 week, hydrochloride monohydrate): 5.48%; water content (K.F. water %) ([2]; 10% relative humidity, 25° C., 3 days, hydrochloride monohydrate): 5.51%; water content (K.F. water %) ([2]; 75% relative humidity, 25° C., 1 week, hydrochloride monohydrate): 5.50%; water content (K.F. water %) ([2]; 75% relative humidity, 25° C., 3 days, hydrochloride monohydrate): 5.49%; water content (K.F. water %) ([2]; 90% relative humidity, 25° C., 1 week, hydrochloride monohydrate): 5.49%; water content (K.F. water %) ([2]; 90% relative humidity, 25° C., 3 days, hydrochloride monohydrate): 5.50%; water content (K.F. water %) ([2]; Initial, hydrochloride monohydrate): 5.50%; content (HPLC) upon 60° C. heat treatment ([4]; 60° C., 1 wk, hydrochloride monohydrate): 0.999; content (HPLC) upon 60° C. heat treatment ([4]; 60° C., 2 wks, hydrochloride monohydrate): 0.999; content (HPLC) upon 60° C. heat treatment ([4]; 60° C., 4 wks, hydrochloride monohydrate): 0.999; change in content / impurities upon 60° C. heat treatment (in words) ([4]; 60° C., up to one month or longer): almost no change in content
